The values that follow come from US7932290B2, “Method for the treatment of metabolic disorders” (Wellstat Biologics Corporation, priority 2003, dated 2011).

In test [1] the target is T1, Mouse PPARγ LBD fusion protein (Mus musculus, UniProt P37238).
T1 sequence (P37238 238-503): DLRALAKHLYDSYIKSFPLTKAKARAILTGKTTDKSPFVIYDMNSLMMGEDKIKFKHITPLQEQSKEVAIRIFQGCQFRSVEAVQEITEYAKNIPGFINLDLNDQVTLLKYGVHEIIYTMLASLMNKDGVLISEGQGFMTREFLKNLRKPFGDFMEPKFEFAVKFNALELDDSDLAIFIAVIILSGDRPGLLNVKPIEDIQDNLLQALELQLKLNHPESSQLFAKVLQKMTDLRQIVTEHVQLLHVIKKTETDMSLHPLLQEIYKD
The test is described as follows: Transcription activation potential, GAL4 luciferase reporter in C3A cells. The format is cell-based. The procedure: (§1) Cells were seeded in 24 well plates the day prior to transfection at 5×10^4−2×10^5 cells/well, depending upon cell type. Cells were transfected using Lipofectamine 2000 reagent from Invitrogen. A total of 0.8 μg DNA/well was added to 50 μL of Optimem Reduced Serum media (serum free; Gibco). Lipofectamine 2000 was added (2.5 μL/well) to another tube containing 50 μL of Optimem media. Plasmid DNA was added at a ratio of 4:3 (reporter:activator); where appropriate, salmon sperm DNA was substituted for activator expressing plasmid. […] DNA constructs containing the mouse PPARα or PPARγ LBD fused to the GAL4 DNA binding domain were also used. The two solutions were incubated at room temperature for 5 min, and then combined. The combined solution was incubated at room temperature for approximately 30 min. Cells were washed once with PBS, and 100 μL of transfection mix added to each well. Plates were incubated at 37° C. in a 5% CO2 incubator for 4.5 hr, followed by aspiration of the transfection mix, with plates refed using EMEM complete media (supplemented with 10% FBS, 1× Glutamine). 24 hr post-transfection, plates were treated with the appropriate compounds in EMEM complete media, followed by washing once with PBS and addition of 100 μL 1× reporter lysis buffer/well (Promega) 24 hr after treatment. Plates went through one freeze/thaw cycle prior to analysis. Approximately 10 μL of lysate was added to 100 μL of firefly luciferase substrate, mixed by pipetting, and analyzed on a luminometer for 10 s using the integration function (relative luciferase units/RLU) or on a Microbeta Trilux (luciferase counts per second/LCPS). Each treatment was performed in triplicate, and in multiple, separate experiments.
On the technique in general: A reporter such as luciferase makes a cellular process visible.

The subject of test [2] is Human PPARγ LBD fusion protein. The test is described as above. Type of test: cell-based. As to the method: as §1
The subject of the next test is db/db mice. The test is described as follows: Antidiabetic effects in db/db mice, Example C (17 days daily oral dosing). The format is in vivo, mouse. The text has this:
C57BL/Ksola (db/db) mice have a defect in leptin signaling, leading to hyperphagia, obesity and diabetes. Moreover, unlike ob/ob mice on a C57BL/6J background, db/db mice on a C57BLKS background undergo failure of their insulin-producing pancreatic islet cells, resulting in progression from hyperinsulinemia (associated with peripheral insulin resistance) to hypoinsulinemic diabetes.
Male obese (db/db homozygote) C57BL/Ksola mice approximately 8 weeks of age, were obtained from Jackson Labs (Bar Harbor, Me.) and sorted into groups of 7 animals each animals such that the body weights (40-45 g) and serum glucose levels (≧300 mg/dl in fed state) were similar between groups. A minimum of 7 days was allowed for adaptation after arrival. All animals were maintained under controlled temperature (23° C.), relative humidity (50±5%) and light (7:00-19:00), and allowed free access to standard chow (Formulab Diet 5008, Quality Lab Products, Elkridge, Md.) and water.
Treatment cohorts were given daily oral doses of vehicle (1% hydroxypropylmethylcellulose), Compounds BI, CF, CG, or phenylacetate for 17 days. At the end of the treatment period, blood samples were collected and serum glucose and triglycerides were measured.

[3] abbreviates: 100 μM test compound, Table 20b.
Setting [4] is: 200 μM test compound, Table 20b.

For `Cc1cccc(C)c1COc1cccc(CC(=O)O)c1` [Compound CF, 3-(2,6-Dimethylbenzyloxy)phenylacetic acid], the “transcription activation potential (luciferase) ± standard deviation” value was found to be 0.33 ± 0.21 LCPS in test [1] (1 μM test compound, Table 20b); 146 ± 119 RLU in test [1] (1 μM, Table 21b); 10.6 ± 8.74 LCPS in test [1] (3 μM test compound, Table 20b); 579 ± 557 RLU in test [1] (3 μM, Table 21b); 476 ± 527 RLU in test [1] (5 μM, Table 21b); 834 ± 984 RLU in test [1] (7 μM, Table 21b). In addition, the “transcription activation potential (luciferase) ± standard deviation” value stood at 17.2 ± 21 LCPS in test [1] (10 μM test compound, Table 20b); 207 ± 107 RLU in test [1] (10 μM, Table 21b); 88.2 ± 33.2 LCPS in test [1] (30 μM test compound, Table 20b); 818 ± 1201 RLU in test [1] (30 μM, Table 21b); 45.8 ± 36.9 LCPS in test [1] (setting [3]); 237 ± 216 RLU in test [1] (100 μM, Table 21b). In addition, the “transcription activation potential (luciferase) ± standard deviation” value in test [1] (setting [4]) is recorded as 93.6 ± 29.7 LCPS; in test [2] (1 μM test compound), 6.2 ± 0.6 LCPS; in test [2] (3 μM test compound), 49.4 ± 7.8 LCPS; in test [2] (10 μM test compound), 141.5 ± 25.9 LCPS; in test [2] (30 μM test compound) it was 230.4 ± 97.2 LCPS; in test [2] (100 μM test compound), 225.2 ± 57.5 LCPS. Further, the “transcription activation potential (luciferase) ± standard deviation” value in test [2] (200 μM test compound) was 280.1 ± 89.7 LCPS. In addition, the “Glucose mg/dL (±SEM)” value in the test on db/db mice (30 mg/kg daily oral) is 586 ± 31 mg/dL; in the test with db/db mice (60 mg/kg daily oral), 604 ± 36 mg/dL; in the test with db/db mice (100 mg/kg daily oral) it was 391 ± 61 mg/dL. The entries for the “Triglycerides” value in the test on db/db mice (30 mg/kg daily oral), with db/db mice (60 mg/kg daily oral) and with db/db mice (100 mg/kg daily oral) were 156 ± 20 mg/dL, 120 ± 13 mg/dL and 92 ± 6 mg/dL, respectively.

Turning to `Cc1cccc(C)c1COc1cccc(C(=O)O)c1` [Compound CG, 3-(2,6-Dimethylbenzyloxy)benzoic acid], the “transcription activation potential (luciferase) ± standard deviation” value in test [1] (1 μM test compound, Table 20b) is 8.47 ± 5.01 LCPS; in test [1] (1 μM, Table 21b), 634 ± 195 RLU; in test [1] (3 μM test compound, Table 20b) it was 14.8 ± 4.3 LCPS; in test [1] (10 μM test compound, Table 20b) it was 20.87 ± 4.1 LCPS; in test [1] (10 μM, Table 21b), 405 ± 318 RLU; in test [1] (30 μM test compound, Table 20b) it was 55.4 ± 30.6 LCPS. Further, the “transcription activation potential (luciferase) ± standard deviation” value in test [1] (30 μM, Table 21b) worked out at 1562 ± 354 RLU; in test [1] (setting [3]) it was 78.8 ± 23.1 LCPS; in test [1] (100 μM, Table 21b), 2555 ± 1609 RLU; in test [1] (setting [4]) it was 101.2 ± 59.1 LCPS; in test [2] (1 μM test compound) it was 47.9 ± 7.2 LCPS; in test [2] (3 μM test compound) it was 73.6 ± 39.1 LCPS. Besides, the “transcription activation potential (luciferase) ± standard deviation” value in test [2] (10 μM test compound) amounted to 72.5 ± 28.2 LCPS; in test [2] (30 μM test compound), 205.6 ± 37.1 LCPS; in test [2] (100 μM test compound), 403.6 ± 86.1 LCPS; in test [2] (200 μM test compound) it was 598.1 ± 190.4 LCPS. For the same compound, in the test with db/db mice (100 mg/kg daily oral), the “Glucose mg/dL (±SEM)” value turned out to be 753 ± 24 mg/dL. Also, in the test on db/db mice (100 mg/kg daily oral), the “Triglycerides” value is given as 166 ± 14 mg/dL.

`Cc1cccc(C)c1COc1cccc(C(=O)CCC(=O)O)c1` [Compound BI, 4-(3-(2,6-Dimethylbenzyloxy)phenyl)-4-oxobutyric acid]: the “transcription activation potential (luciferase) ± standard deviation” value in test [1] (1 μM test compound, Table 20b) amounted to 2.4 ± 2.26 LCPS; in test [1] (1 μM, Table 21b), 746 ± 362 RLU; in test [1] (3 μM test compound, Table 20b) it was 2.6 ± 1.41 LCPS; in test [1] (3 μM, Table 21b), 174 ± 153 RLU; in test [1] (5 μM, Table 21b) it was 996 ± 855 RLU; in test [1] (7 μM, Table 21b) it was 220 ± 137 RLU. Besides, the “transcription activation potential (luciferase) ± standard deviation” value in test [1] (10 μM test compound, Table 20b) is on record as 2.2 ± 1.57 LCPS; in test [1] (10 μM, Table 21b), 479 ± 353 RLU; in test [1] (30 μM test compound, Table 20b) it was 4.9 ± 4.42 LCPS; in test [1] (30 μM, Table 21b), 557 ± 639 RLU; in test [1] (setting [3]) it was 2.63 ± 1.96 LCPS; in test [1] (100 μM, Table 21b), 3330 ± 1848 RLU. The “transcription activation potential (luciferase) ± standard deviation” value in test [1] (setting [4]) was determined as 65.77 ± 10.55 LCPS; in test [2] (1 μM test compound), 43.3 ± 11.6 LCPS; in test [2] (3 μM test compound), 26 ± 4.5 LCPS; in test [2] (10 μM test compound), 40.1 ± 13.5 LCPS; in test [2] (30 μM test compound), 22.9 ± 10.3 LCPS; in test [2] (100 μM test compound), 34.6 ± 15.6 LCPS. In test [2] (200 μM test compound), the “transcription activation potential (luciferase) ± standard deviation” value is recorded as 227.3 ± 25.8 LCPS. Also, the figures for the “Glucose mg/dL (±SEM)” value in the test with db/db mice (100 mg/kg daily oral) and in the test on db/db mice (150 mg/kg daily oral) were 472 ± 54 mg/dL and 348 ± 67 mg/dL, respectively. Further, the “Triglycerides” value in the test on db/db mice (100 mg/kg daily oral) came out at 116 ± 4 mg/dL; in the test on db/db mice (150 mg/kg daily oral), 90 ± 6 mg/dL.
